Where “and” joins values, the source holds several entries; their conditions need not be identical. Equal entries are not always repeated. Where two headings read alike, the source gives them in different places.
Tests used:
[1] = Dose range finding and toxicokinetic study; type: in vivo
Experimental: (§1) Dose range finding and toxicokinetic study was carried out in rats and Beagle dogs based on in vitro metabolites identification. Wistar rats (male: 3, female 3 in each group, from Vital River, Beijing, China) were fasted overnight, and then received test articles as 0, 6.25, 50 and 100 mg/kg twice a day per oral gavage for a 14-day continuous regimen. Motility observation was applied on a daily bases to find the maximum tolerant dose for the animals. The animals were sacrificed on d14, and the following toxicology observation were carried out including body weight changes, clinical observation, gross necropsy, hematology chemistry and histopathology. On day 1 and day 14, blood samples were obtained via jugular vein puncture from all animals (if alive, using EDTA-K2 tubes). Samples were mixed gently and placed on crushed wet-ice until centrifugation, which was carried out immediately. The samples were centrifuged for approximately 15 minutes at 4°C 2,700 rpm. The resultant plasma was separated, transferred to uniquely labeled clear polypropylene tubes and frozen immediately over solid carbon dioxide (dry ice) until transferred to approximately −80°C. Each animal was bled at the following time points: approximately 5 min, 15 min, 30 min, 1, 2, 4, 8 and 24 hours post first dose on the specific day. The drug concentrations in the plasma were determined by LC-MS/MS. The pharmacokinetic analysis was performed using WinNonlin software (Version 5.2, Pharsight Corporation, CA, USA), and the pharmacokinetic parameters were calculated using a Non-compartmental model method.
Beagle dogs (approximately 8–10 months, from Beijing Marshall Biotechnology Co. Ltd., Beijing, China) were subjected to the study protocol as described above. Each group has one male and one female dog, the dosages of test article were: 0, 1, 7.5 and 15 mg/kg, respectively.

[2] = test system: human primary gastric tumor derived xenografts; experiment: Three human GC primary tumor derived xenograft models (overall); type: in vivo, BALB/C nu/nu nude mice; settings: three patient derived gastric xenografts, 25 mg/kg
Experimental: In human primary tumor models, fresh human gastric tumor tissues were directly implanted into nonobese diabetic and severe combined immune-deficient (NOD-SCID) mice within 5 hours post-surgery with 5 mm^3 fragments to establish primary tumor xenograft models. […] Treatment began when tumor volume reached 100∼150 mm^3. The tumor measurement and operation protocol was the same as cell line derived tumor model.

[3] = Dose range finding and toxicokinetic study; type: in vivo; settings: for MTD at 2 week / AUC(0-t): po
Experimental: as §1

[4] = test system: HUVEC (VEGF 165 stimulated); experiment: VEGF-induced HUVEC proliferation assay; type: cell-based; settings: Homo sapiens, 0.5% FBS with VEGF 165, 72 h
Experimental: (§2) Each cell line was seeded in a 96-well tissue culture plate (Corning, NY) at a predetermined density in 180 µL complete medium, attached overnight and treated by compound for another 72 h. Then the medium was discarded and replaced with 10% CCK-8 (Dojindo, Kumamoto, Japan) in complete medium, then incubated the plates for another 2 h. The OD450 was measured with SpectraMAX 190 spectrophotometer (MDS, Sunnyvale, CA). A background absorbance of ODblank was subtracted from all wells.
In VEGF-induced HUVEC proliferation assay, the HUVECs suspended in 170 µL EGM-2 with 0.5% FBS were seeded and incubated overnight. After the cells attached, 10 µL 1 µg/ml recombinant human VEGF 165 (R&D systems, Minneapolis, MN) was added to each well together with 20 µl compound solutions prepared in EGM-2 with 0.5% FBS. The CCK-8 assay as above was used for determination of cell viability.

[5] = test system: nasopharyngeal carcinoma cell lines; experiment: Cell proliferation assay (CCK-8, 72 h); type: cell-based; settings: Homo sapiens, nasopharyngeal carcinoma cell line panel, read-out: overall mean IC50
Experimental: as §2

[6] = test system: gastric cancer cell lines; experiment: Cell proliferation assay (CCK-8, 72 h); type: cell-based; settings: Homo sapiens, gastric cancer cell line panel, read-out: overall mean IC50
Experimental: as §2

[7] = test system: hepatocellular carcinoma cell lines; experiment: Cell proliferation assay (CCK-8, 72 h); type: cell-based; settings: Homo sapiens, hepatocellular carcinoma cell line panel, read-out: overall mean IC50
Experimental: as §2

BEL-7402 cells = experiment: Cell cycle distribution by flow cytometry; type: cell-based, human; settings: BEL-7402, 10 µM
Experimental: (§3) DNA content was measured with a FACS-Calibur cytometer (Becton Dickinson, San Jose, CA) and cell cycle distribution was calculated as described previously.

SGC-7901 cells = experiment: Cell cycle distribution by flow cytometry; type: cell-based, human; settings: SGC-7901, 10 µM
Experimental: as §3

HGC-27 xenograft = experiment: Xenograft efficacy study; type: in vivo, BALB/C nu/nu nude mice; settings: HGC-27, 25 mg/kg twice a day per oral gavage
Experimental: Tumor cells were inoculated into the right flank of BALB/C nu/nu female nude mice (5∼6 weeks, 16∼18 g, obtained from Sino-British SIPPR/BK Lab. Animal Ltd, Shanghai, China) at optimal density based on our in-house validation study. After the tumor was established and reached 100∼150 mm^3, the mice were randomized into ten mice per group and received treatment according to the schedule. The tumor growth was recorded three times a week with the measurement of length (L) and width (W) by caliper, and calculated as tumor volume (TV, mm^3) = 0.5*L*W*W (mm). […] The tumor regression of individual mouse was defined - the tumor volume at the end was less than the tumor volume when treatment was initiated.

phospho-Aurora A (T288) = experiment: Immunohistochemistry of BEL-7402 tumors, Aurora kinase A activity marker; type: in vivo, BALB/C nu/nu nude mice; settings: BEL-7402 tumors from efficacy study
Experimental: The 8 µm paraffin embedded tumor tissue slides prepared from tumor of in vivo efficacy studies were heated in a dry oven at 60°C for 1 hour, then deparaffinized and hydrolyzed by Leica autostainer XL ST5010 at room temperature. Antigen retrieval was carried out at 95∼99°C in citrate buffer (0.01 M, pH 6.0) heated by a medical microwave at 92–98°C for 5 min, then cooled down to room temperature. Then peroxidase-blocking reagent (DAKO, DK-2600, Glostrup Denmark) was applied to quench the endogenous peroxidase. The slides were incubated in blocking serum for 20 min, then covered by 100 µL phospho-Aurora A (Thr288) (C39D8) rabbit mAb (CST #3079, 1∶200 in TBS/T) or rabbit anti-human CD31 polyclonal antibody (Santa Cruz Biotech, sc-8306, Santa Cruz, CA, USA; 1∶200 in TBS/T) at 4°C overnight, then incubated in 100 µL DAKO Envision+/HRP, rabbit/mouse after being washed thoroughly with TBS. One hundred micro liters of substrate-chromogenic solution (DAB) were applied to the slides and incubated at room temperature for 10 min. The slides were rinsed gently with tap water for 15 min. Counterstain and dehydration was performed by XL ST5010 at room temperature. Finally, the slides were mounted with Permount mounting medium (Fisher Scientific, Miami, FL).

## COc1ccc2c(c1)C(c1ccccc1Cl)=Nc1c(n[nH]c1C)N2 [R1498]
[1]; both sexes, dog, in vivo, po, beagle dogs (F/M), 2-week DRF, bid dosing
  MTD at 2 week: > 15 mg/kg
[1]; both sexes, dog, plasma, po, 15 mg/kg, beagle dogs, at highest dose, read-out: MTD AUC0-24
  AUC(0-t): > 111 µg·h/mL
[1]; dogs, 0, 1, 7.5, 15 mg/kg, 2-week DRF
  Histopathology results: no significant findings at all doses
[1]; female dog
  dose at which body weight loss began: 7.5 mg/kg
[2]
  Final TGI%: 73.6 ∼ 91.6%
  regression rates: 10–30% and 10∼30%
[3]; female rats
  dose at which body weight loss began: 12.5 mg/kg
[3]; female, Wistar, rat, in vivo
  MTD AUC / ED90 AUC: 8.1
  MTD at 2 week: 50 mg/kg
[3]; female, Wistar, rat, in vivo, 50 mg/kg
  AUC(0-t): 211 µg·h/mL
[3]; male rats
  dose at which body weight loss began: 100 mg/kg
[3]; male, Wistar, rat, in vivo
  MTD at 2 week: > 100 mg/kg
[3]; male, Wistar, rat, in vivo, 100 mg/kg
  AUC(0-t): > 155 µg·h/mL
[4]
  IC50: 0.089 µM
[5]
  IC50: 30.1 µM
[6]
  IC50: 7.55 µM
[7]
  IC50: 7.81 µM
BEL-7402 cells; control 6.7%
  cells with >4N DNA content: 17.6%
BEL-7402 cells; control 25.6%
  cells in G2/M phases: 57.0%
SGC-7901 cells; control 3.1%
  cells with >4N DNA content (polyploid cells): 21.6%
SGC-7901 cells; control 25.2%
  cells in G2/M phases: 75.5%
HGC-27 xenograft; day of study termination
  Final TGI%: 85%
HGC-27 xenograft; before vs after treatment
  Body weight changes%: 6%
HGC-27 xenograft; mice with regression/group
  Tumor Regression: 0/10
phospho-Aurora A (T288)
  phospho-Aurora A (T288) staining in tumors: weaker staining
